Experimental data from ChEMBL document CHEMBL1201862, “PubChem BioAssay data set” (2004).
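Cells were grown in 96-well plates and exposed to each compound for 48 hours at five concentrations; endpoints were interpolated linearly between bracketing concentrations, or set to the highest concentration if not reached. Abbreviation: GI50, concentration required for 50% inhibition of growth.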 The source made the active and inactive calls. Cut-off read from the data, not from the text of the source: active = GI50 up to about 1.1 µM and inactive = higher.

Assays:
Test in all cases: growth of human tumour cells (NCI), 48 h
OVCAR-3 = tested on: OVCAR-3
LOX IMVI = tested on: LOX IMVI
SF-539 = tested on: SF-539
U-251 = tested on: U-251
RPMI-8226 = tested on: RPMI-8226
HOP-62 = tested on: HOP-62
DMS-114 = tested on: DMS-114
UACC-257 = tested on: UACC-257
Malme-3M = tested on: Malme-3M
OVCAR-8 = tested on: OVCAR-8
SK-OV-3 = tested on: SK-OV-3
HOP-92 = tested on: HOP-92
K562 = tested on: K562
SNB-19 = tested on: SNB-19
NCI-H522 = tested on: NCI-H522
NCI/ADR-RES = tested on: NCI/ADR-RES
PC-3 = tested on: PC-3
Hs-578T = tested on: Hs-578T
BT-549 = tested on: BT-549
MDA-N = tested on: MDA-N

SMILES | GI50 (OVCAR-3) | GI50 (LOX IMVI) | GI50 (SF-539) | GI50 (U-251) | GI50 (RPMI-8226) | GI50 (HOP-62) | GI50 (DMS-114) | GI50 (UACC-257) | GI50 (Malme-3M) | GI50 (OVCAR-8) | GI50 (SK-OV-3) | GI50 (HOP-92) | GI50 (K562) | GI50 (SNB-19) | GI50 (NCI-H522) | GI50 (NCI/ADR-RES) | GI50 (PC-3) | GI50 (Hs-578T) | GI50 (BT-549) | GI50 (MDA-N)
O=S(=O)(c1ccccc1)N1CCC1c1ccccc1 (configuration not stated) | > 100 µM (inactive) | > 100 µM (inactive) | > 100 µM (inactive) | > 100 µM (inactive) | 43.2 µM (inactive) | > 100 µM (inactive) | 50.1 µM (inactive) | 63.2 µM (inactive) | > 100 µM (inactive) | > 100 µM (inactive) | > 100 µM (inactive) | 26.1 µM (inactive) | 54.3 µM (inactive) | > 100 µM (inactive) | 98.9 µM (inactive) |  |  |  |  | 
CCCCCCCC(=O)OCC1OC(n2cc(F)c(=O)[nH]c2=O)C(N)C(O)C1O (configuration not stated) | > 100 µM (inactive) |  | > 100 µM (inactive) | > 100 µM (inactive) | > 100 µM (inactive) | > 100 µM (inactive) | > 100 µM (inactive) | > 100 µM (inactive) | > 100 µM (inactive) | > 100 µM (inactive) | > 100 µM (inactive) | > 100 µM (inactive) | > 100 µM (inactive) | > 100 µM (inactive) | > 100 µM (inactive) |  |  |  |  | 
COc1cccc2c1C(=O)c1c(O)c3c(c(O)c1C2=O)CC(O)(C(C)=O)CC3OC1CC([N+](C)(C)C)C(O)C(C)O1 (configuration not stated) | > 100 µM (inactive) | 51.9 µM (inactive) | 47.2 µM (inactive) | 55.1 µM (inactive) | 22.5 µM (inactive) | > 100 µM (inactive) | > 100 µM (inactive) | > 100 µM (inactive) | > 100 µM (inactive) | 54.3 µM (inactive) | > 100 µM (inactive) | > 100 µM (inactive) | 23.1 µM (inactive) | > 100 µM (inactive) | 31.3 µM (inactive) |  |  |  |  | 
N#C[C-](C#N)[n+]1ccc(Cl)cc1 | 17.7 µM (inactive) | 11.2 µM (inactive) | 20.4 µM (inactive) | 16.2 µM (inactive) | 4.79 µM (inactive) | 29.2 µM (inactive) | 13.4 µM (inactive) | 15.2 µM (inactive) | 15.8 µM (inactive) | 17.1 µM (inactive) | 34 µM (inactive) | 15.3 µM (inactive) | 3.03 µM (inactive) | 32.1 µM (inactive) | 3.19 µM (inactive) |  |  |  |  | 
COS(=O)CCOC(=O)c1ccccc1SSc1ccccc1C(=O)OCCS(=O)OC (configuration not stated) | 22.1 µM (inactive) | 22.2 µM (inactive) | 25.3 µM (inactive) | 69.7 µM (inactive) | 18.9 µM (inactive) | > 100 µM (inactive) | 16 µM (inactive) | 15.6 µM (inactive) | 18.6 µM (inactive) | 22.3 µM (inactive) | > 100 µM (inactive) | 25.1 µM (inactive) | 20.6 µM (inactive) | > 100 µM (inactive) | 4.78 µM (inactive) |  |  |  |  | 
CCN(CC)CCCNc1ncc(C)c2c1c1ccc3c(O)cccc3c1n2C | 3.87 µM (inactive) | 1.29 µM (inactive) | 2.11 µM (inactive) | 1.1 µM (active) | 1.47 µM (inactive) | 0.964 µM (active) | 1.39 µM (inactive) | 16.3 µM (inactive) | 14.7 µM (inactive) | 1.43 µM (inactive) | 4.9 µM (inactive) | 9.16 µM (inactive) | 1.5 µM (inactive) | 1.07 µM (active) | 1.05 µM (active) | 2.81 µM (inactive) | 0.687 µM (active) | 1.68 µM (inactive) | 1.89 µM (inactive) | 1.65 µM (inactive)
Nc1nc(CCc2n[nH]c(N)n2)n[nH]1 | > 100 µM (inactive) | > 100 µM (inactive) | > 100 µM (inactive) | > 100 µM (inactive) | > 100 µM (inactive) | > 100 µM (inactive) | > 100 µM (inactive) | > 100 µM (inactive) | > 100 µM (inactive) | > 100 µM (inactive) | > 100 µM (inactive) | > 100 µM (inactive) | > 100 µM (inactive) | > 100 µM (inactive) | > 100 µM (inactive) |  |  |  |  | 
Cc1c2cc[n+](C)cc2c(C)c2c1[nH]c1ccc(OC(C)(C)C)cc12 |  | > 100 µM (inactive) | > 100 µM (inactive) | > 100 µM (inactive) | > 100 µM (inactive) | > 100 µM (inactive) | > 100 µM (inactive) | > 100 µM (inactive) | > 100 µM (inactive) | > 100 µM (inactive) | > 100 µM (inactive) | > 100 µM (inactive) | > 100 µM (inactive) |  | > 100 µM (inactive) |  |  |  |  | 
C[C@]12CC[C@H](OC3OC(CO)C(O)C(O)C3O)C[C@H]1CC[C@@H]1[C@@H]2CC[C@]2(C)[C@@H](C3=CCOC3=O)CC[C@]12O (some centres not stated) [ACTODIGIN] |  | 0.495 µM (active) | 0.447 µM (active) | 4.73 µM (inactive) |  | 0.787 µM (active) | 10.2 µM (inactive) |  | 2.09 µM (inactive) |  | > 50 µM (inactive) | 2.24 µM (inactive) | 21.5 µM (inactive) |  | 16.8 µM (inactive) | 24.4 µM (inactive) | > 100 µM (inactive) | 40.9 µM (inactive) | > 100 µM (inactive) | > 100 µM (inactive)
